Activity calls are given as the source filed them. On the calls: in the data inactive means no Kd found up to 30 µM.
Tests used:
[1] = biological target: T1, Mitogen-activated protein kinase kinase kinase 6 (Homo sapiens, UniProt O95382)
T1 sequence (O95382 whole entry): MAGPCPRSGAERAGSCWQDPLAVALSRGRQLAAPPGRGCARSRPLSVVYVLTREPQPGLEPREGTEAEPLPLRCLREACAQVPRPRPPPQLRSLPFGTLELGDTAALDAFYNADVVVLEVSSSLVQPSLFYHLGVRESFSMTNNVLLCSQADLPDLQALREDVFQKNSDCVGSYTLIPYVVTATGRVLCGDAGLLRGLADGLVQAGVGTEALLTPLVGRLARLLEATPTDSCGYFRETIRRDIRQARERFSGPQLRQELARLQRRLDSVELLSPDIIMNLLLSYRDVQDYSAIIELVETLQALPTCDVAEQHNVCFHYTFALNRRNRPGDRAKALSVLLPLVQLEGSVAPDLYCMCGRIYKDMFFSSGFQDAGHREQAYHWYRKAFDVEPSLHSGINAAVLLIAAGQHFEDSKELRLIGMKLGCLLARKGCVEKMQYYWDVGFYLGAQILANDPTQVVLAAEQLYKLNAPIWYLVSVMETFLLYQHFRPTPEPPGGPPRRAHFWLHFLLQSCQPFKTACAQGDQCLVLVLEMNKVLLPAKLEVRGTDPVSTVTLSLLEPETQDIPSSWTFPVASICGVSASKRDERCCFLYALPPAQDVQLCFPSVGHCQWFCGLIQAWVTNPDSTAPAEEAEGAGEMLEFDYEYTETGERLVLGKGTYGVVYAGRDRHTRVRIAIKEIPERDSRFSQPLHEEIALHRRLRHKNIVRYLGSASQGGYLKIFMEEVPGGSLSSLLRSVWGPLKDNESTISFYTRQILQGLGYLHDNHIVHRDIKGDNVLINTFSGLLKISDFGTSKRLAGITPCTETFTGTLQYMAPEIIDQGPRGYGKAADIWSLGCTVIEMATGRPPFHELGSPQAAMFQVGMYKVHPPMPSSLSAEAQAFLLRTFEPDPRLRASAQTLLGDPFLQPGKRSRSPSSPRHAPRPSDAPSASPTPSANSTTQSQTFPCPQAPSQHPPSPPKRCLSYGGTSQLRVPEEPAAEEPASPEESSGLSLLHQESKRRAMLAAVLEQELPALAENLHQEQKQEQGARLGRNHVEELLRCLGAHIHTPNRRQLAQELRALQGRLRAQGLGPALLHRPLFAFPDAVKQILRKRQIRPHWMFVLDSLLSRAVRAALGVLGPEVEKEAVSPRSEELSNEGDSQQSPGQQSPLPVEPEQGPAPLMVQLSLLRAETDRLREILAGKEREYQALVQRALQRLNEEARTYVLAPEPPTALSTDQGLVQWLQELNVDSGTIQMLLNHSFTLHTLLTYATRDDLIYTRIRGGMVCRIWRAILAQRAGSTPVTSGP

[2] = biological target: T2, Very long-chain specific acyl-CoA dehydrogenase, mitochondrial (Homo sapiens, UniProt P49748)
T2 sequence (P49748 whole entry): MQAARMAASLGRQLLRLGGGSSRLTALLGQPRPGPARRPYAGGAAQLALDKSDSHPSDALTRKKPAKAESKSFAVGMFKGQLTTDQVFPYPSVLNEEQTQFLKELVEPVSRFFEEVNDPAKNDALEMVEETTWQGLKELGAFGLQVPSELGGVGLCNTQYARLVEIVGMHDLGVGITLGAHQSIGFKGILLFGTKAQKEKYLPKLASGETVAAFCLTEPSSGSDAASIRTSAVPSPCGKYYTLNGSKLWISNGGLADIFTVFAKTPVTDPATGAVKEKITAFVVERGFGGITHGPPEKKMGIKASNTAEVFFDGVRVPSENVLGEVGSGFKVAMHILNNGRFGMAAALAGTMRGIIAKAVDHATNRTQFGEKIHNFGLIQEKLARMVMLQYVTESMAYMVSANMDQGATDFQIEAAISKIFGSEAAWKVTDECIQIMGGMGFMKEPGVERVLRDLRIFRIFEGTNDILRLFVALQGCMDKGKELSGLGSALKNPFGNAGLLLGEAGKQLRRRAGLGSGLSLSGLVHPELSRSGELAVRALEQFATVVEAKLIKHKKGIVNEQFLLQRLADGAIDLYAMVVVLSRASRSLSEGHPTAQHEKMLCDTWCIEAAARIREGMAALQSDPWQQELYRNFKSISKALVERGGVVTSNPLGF

[3] = biological target: T3, RNA cytidine acetyltransferase (Homo sapiens, UniProt Q9H0A0)
T3 sequence (Q9H0A0 whole entry): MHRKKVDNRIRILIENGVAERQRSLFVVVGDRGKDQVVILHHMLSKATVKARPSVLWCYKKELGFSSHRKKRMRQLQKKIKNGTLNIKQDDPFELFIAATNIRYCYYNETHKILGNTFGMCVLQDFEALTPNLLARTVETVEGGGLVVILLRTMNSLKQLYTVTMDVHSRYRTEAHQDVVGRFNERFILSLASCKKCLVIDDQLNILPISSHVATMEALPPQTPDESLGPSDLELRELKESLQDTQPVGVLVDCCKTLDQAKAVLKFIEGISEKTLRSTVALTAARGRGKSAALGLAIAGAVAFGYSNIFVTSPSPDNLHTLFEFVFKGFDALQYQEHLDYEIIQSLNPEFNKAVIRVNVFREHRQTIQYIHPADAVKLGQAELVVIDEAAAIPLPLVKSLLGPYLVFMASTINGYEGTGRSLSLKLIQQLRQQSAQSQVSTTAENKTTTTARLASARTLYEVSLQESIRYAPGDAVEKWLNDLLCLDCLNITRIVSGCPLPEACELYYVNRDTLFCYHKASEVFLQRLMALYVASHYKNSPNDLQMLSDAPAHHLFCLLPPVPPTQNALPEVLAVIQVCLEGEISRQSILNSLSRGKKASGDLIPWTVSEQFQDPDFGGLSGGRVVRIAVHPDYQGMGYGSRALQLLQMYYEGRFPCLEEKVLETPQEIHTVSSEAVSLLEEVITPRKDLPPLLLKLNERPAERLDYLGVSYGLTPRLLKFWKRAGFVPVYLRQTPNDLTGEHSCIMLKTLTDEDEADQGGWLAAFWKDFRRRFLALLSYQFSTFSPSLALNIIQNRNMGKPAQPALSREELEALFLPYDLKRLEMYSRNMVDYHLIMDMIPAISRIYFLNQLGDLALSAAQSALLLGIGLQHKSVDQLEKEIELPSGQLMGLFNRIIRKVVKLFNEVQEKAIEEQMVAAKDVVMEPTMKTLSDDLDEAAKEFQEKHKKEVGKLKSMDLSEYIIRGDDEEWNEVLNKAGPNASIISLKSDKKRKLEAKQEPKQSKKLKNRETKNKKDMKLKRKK

Kd [1] | Kd [2] | Kd [3] | SMILES
> 30 µM (inactive) | > 30 µM (inactive) | > 30 µM (inactive) | CCN(CCCOc1ccc2c(Nc3cc(CC(=O)Nc4cccc(F)c4)n[nH]3)ncnc2c1)CCOP(=O)(O)O [BARASERTIB]
> 30 µM (inactive) | > 30 µM (inactive) | > 30 µM (inactive) | O=C(Nc1ccc(OC(F)(F)F)cc1)c1sccc1NCc1ccnc2ccccc12 [OSI-930]
> 30 µM (inactive) | > 30 µM (inactive) | > 30 µM (inactive) | CNC(=O)c1cc(COc2nnc(Nc3ccc(Cl)cc3)c3ccoc23)ccn1 [TELATINIB]
> 30 µM (inactive) | > 30 µM (inactive) | > 30 µM (inactive) | FC(F)(F)c1ccc(CNc2ccc(Cc3c[nH]c4ncc(Cl)cc34)cn2)cn1 [PEXIDARTINIB]
> 30 µM (inactive) | > 30 µM (inactive) | > 30 µM (inactive) | C=CC(=O)Nc1cccc(Nc2nc(Nc3ccc(N4CCN(C(C)=O)CC4)cc3OC)ncc2C(F)(F)F)c1 [ROCILETINIB]
> 30 µM (inactive) | > 30 µM (inactive) | > 30 µM (inactive) | C[C@@H]1COC(Nc2ccc3ncnc(Nc4ccc(OCc5nccs5)c(Cl)c4)c3c2)=N1 [VARLITINIB]
> 30 µM (inactive) | > 30 µM (inactive) | > 30 µM (inactive) | O=C(O)c1ccc2c(c1)nc(Nc1cccc(Cl)c1)c1ccncc12 [SILMITASERTIB]
 | > 30 µM (inactive) | > 30 µM (inactive) | CC1(C)CNc2cc(NC(=O)c3cccnc3NCc3ccncc3)ccc21 [MOTESANIB]
 | > 30 µM (inactive) | > 30 µM (inactive) | C[C@@]1(C(=O)Nc2ccc(F)nc2)CCCN1c1nc(Nc2cc(C3CC3)n[nH]2)c2cccn2n1 [BMS-754807]
 | > 30 µM (inactive) | > 30 µM (inactive) | CCOc1ccn(-c2ccc(F)cc2)c(=O)c1C(=O)Nc1ccc(Oc2ccnc(N)c2Cl)c(F)c1 [BMS-777607]
 | > 30 µM (inactive) | > 30 µM (inactive) | CN(C)C/C=C/C(=O)Nc1cc2c(Nc3ccc(F)c(Cl)c3)ncnc2cc1O[C@H]1CCOC1 [AFATINIB]

More lines, now with the values behind:

SMILES | Kd [1] | Kd [2] | Kd [3]
O=C(NC[C@H](O)CO)c1ccncc1Nc1ccc(I)cc1F [PIMASERTIB] | > 30 µM (inactive) | > 30 µM (inactive) | > 30 µM (inactive)
O=C(NOC[C@H](O)CO)c1ccc(F)c(F)c1Nc1ccc(I)cc1F [MIRDAMETINIB] | > 30 µM (inactive) | > 30 µM (inactive) | > 30 µM (inactive)
COc1cc(Nc2ncc(F)c(Nc3ccc4c(n3)N(COP(=O)(O)O)C(=O)C(C)(C)O4)n2)cc(OC)c1OC [FOSTAMATINIB] | > 30 µM (inactive) | > 30 µM (inactive) | > 30 µM (inactive)
COc1cc2c(Oc3ccc4[nH]c(C)cc4c3F)ncnc2cc1OCCCN1CCCC1 [CEDIRANIB] |  | > 30 µM (inactive) | > 30 µM (inactive)
COc1ccc(-c2ccc3ncc4c(c3c2)n(-c2ccc(N3CCNCC3)c(C(F)(F)F)c2)c(=O)n4C)cn1 [BGT-226 FREE BASE] | > 30 µM (inactive) | > 30 µM (inactive) | > 30 µM (inactive)
COc1cc2c(N3CCN(C(=O)Nc4ccc(OC(C)C)cc4)CC3)ncnc2cc1OCCCN1CCCCC1 [TANDUTINIB] |  | > 30 µM (inactive) | > 30 µM (inactive)
S=C(NCc1ccc2c(c1)OCO2)N1CCN(c2ncnc3c2oc2ccccc23)CC1 [AMUVATINIB] | > 30 µM (inactive) | > 30 µM (inactive) | > 30 µM (inactive)
Cc1cc(Nc2nc(N[C@@H](C)c3ncc(F)cn3)ncc2Cl)n[nH]1 [AZD-1480] | > 30 µM (inactive) | > 30 µM (inactive) | > 30 µM (inactive)
N#CCNC(=O)c1ccc(-c2ccnc(Nc3ccc(N4CCOCC4)cc3)n2)cc1 [MOMELOTINIB] |  | > 30 µM (inactive) | > 30 µM (inactive)
O=S(=O)(c1cccc2c(O)nccc12)N1CCCNCC1 [HYDROXYFASUDIL] | > 30 µM (inactive) | > 30 µM (inactive) | > 30 µM (inactive)
CCN1CCN(Cc2ccc(Nc3ncc(F)c(-c4cc(F)c5nc(C)n(C(C)C)c5c4)n3)nc2)CC1 [ABEMACICLIB] | > 30 µM (inactive) | > 30 µM (inactive) | > 30 µM (inactive)
COc1cc(F)c(F)c(Nc2ccc(I)cc2F)c1NS(=O)(=O)C1(C[C@H](O)CO)CC1 [REFAMETINIB] | > 30 µM (inactive) | > 30 µM (inactive) | > 30 µM (inactive)
CC1(COc2ccc3c(c2)ncn3-c2ccc3cccc(N4CCC(N)CC4)c3n2)COC1 [CRENOLANIB] | > 30 µM (inactive) | > 30 µM (inactive) | > 30 µM (inactive)
O=c1[nH]c([C@@H]2CCCN2)nc2c1oc1ccc(Cl)cc12 | > 30 µM (inactive) | > 30 µM (inactive) | > 30 µM (inactive)
CC(C)CC(=O)Nc1[nH]nc2c1CN(C(=O)C1CCN(C)CC1)C2(C)C [PHA-793887] | > 30 µM (inactive) | > 30 µM (inactive) | > 30 µM (inactive)
CC[C@@](C)(Nc1ccnc(-c2c[nH]c3ncccc23)n1)C(=O)NCC(F)(F)F [DECERNOTINIB] | > 30 µM (inactive) | > 30 µM (inactive) | > 30 µM (inactive)
CCc1cc2c(cc1N1CCC(N3CCOCC3)CC1)C(C)(C)c1[nH]c3cc(C#N)ccc3c1C2=O [ALECTINIB] | > 30 µM (inactive) | > 30 µM (inactive) | > 30 µM (inactive)
Cc1c(NC(=O)OC[C@@H]2COCCN2)cn2ncnc(Nc3ccc4c(cnn4Cc4cccc(F)c4)c3)c12 [AC-480] | > 30 µM (inactive) | > 30 µM (inactive) | > 30 µM (inactive)
Cn1cnc2c(F)c(Nc3ccc(Br)cc3Cl)c(C(=O)NOCCO)cc21 [SELUMETINIB] |  | > 30 µM (inactive) | > 30 µM (inactive)
c1cc(OCCN2CCCCC2)cc(-c2n[nH]c3ccc(-c4nc[nH]n4)cc23)c1 [CC-401] | > 30 µM (inactive) |  | > 30 µM (inactive)

— ChEMBL document CHEMBL3991601, “The target landscape of clinical kinase drugs” (Science, 2017)
